Measured values reported in PMC11455950, “Effects of SZV-2649, a new multiple ion channel inhibitor mexiletine analogue” (Scientific Reports, 2024).

Assays:
[1] = test system: late sodium current (INaL); test: Whole-cell patch-clamp, late sodium current in dog ventricular myocytes; type: cell-based; conditions: 10 µM, dog left ventricular myocytes
Method: (§1) The effects of SZV-2649 on transmemrane ionic currents were investigated in dog cardiac myocytes after a 5-minute superfusion of the drug.
The late sodium current (INaL) was investigated by application of 2-second-long test pulses to -20 mV from the holding potential of -120 mV with the pulsing cycle length of 5 s. In the internal (pipette) solution, KCl was replaced by 125 mM CsCl to block potassium currents and the external solution contained 1 µM nisoldipine, 0.5 µM HMR-1556 and 0.1 µM dofetilide in order to block ICaL, IKs and IKr currents, respectively.
Ventricular myocytes from Beagle dogs were enzymatically dissociated as described in detail previously. A single droplet of cell suspension was placed in a transparent recording chamber mounted on the stage of an inverted microscope (Olympus IX51, Olympus, Tokyo, Japan), and individual myocytes were allowed to settle and adhere to the chamber bottom for at least 5–10 min before superfusion was initiated and maintained by gravity. Only rod-shaped cells with clear striations were used. […]
(§2) The membrane currents were recorded with Axopatch-200B amplifiers (Molecular Devices, Sunnyvale, CA, USA) by means of the whole-cell configuration of the patch-clamp technique. […]

[2] = test system: rapid delayed rectifier potassium current (IKr); test: Whole-cell patch-clamp, rapid delayed rectifier potassium current in dog ventricular myocytes; type: cell-based; conditions: Canis lupus familiaris, Ventricular myocyte, tail current, dog left ventricular myocytes
Method: as §1
The rapid delayed rectifier potassium current (IKr) was elicited from the holding potential of -80 mV following a prepulse to -40 mV. IKr tail current was measured at a post pulse to -40 mV after 1 s long test pulses from − 30 mV to 50 mV using 10 mV increments at the pulsing cycle length of 20 s (see inset of Fig. 4A). The effect of SZV-2649 was investigated at 1 and 5 µM concentrations.
Ventricular myocytes from Beagle dogs were enzymatically dissociated as described in detail previously. […]
as §2
The inward rectifier (IK1), the transient outward (Ito), the rapid (IKr) and the slow (IKs) delayed rectifier potassium currents were recorded in HEPES-buffered Tyrode’s solution. […] When IKr was recorded, IKs was inhibited by using the selective IKs blocker HMR-1556 (0.5 µM). […]

[3] = test system: dog right ventricular muscle preparations; test: Conventional microelectrode action potential recording, dog ventricular muscle; conditions: for APA / APD50 / APD90 / RP / Vmax: ventricular muscle, CL = 1000 ms, n = 8
Method: The effects of SZV-2649 on action potentials were studied in dog ventricular, atrial and Purkinje fiber preparations.
The Class I antiarrhythmic property of SZV-2649 was further studied with different frequency-dependent protocols. […]. Action potentials were recorded in cardiac ventricular trabeculae and papillary muscle preparations obtained from the right ventricles of Beagle dogs (10–15 kg) of either sex using the conventional microelectrode technique. Dogs were sacrificed by iv. sedation with xylazine (1 mg/kg), followed by i.v. administration of 50 mg/kg pentobarbital. After the cornea reflex disapeared the chest was opened, and the heart was rapidly removed. The heart was immediately rinsed in oxygenated modified Locke’s solution containing (in mM): NaCl 128.3, KCl 4, CaCl2 1.8, MgCl2 0.42, NaHCO3 21.4, and glucose 10. The pH of this solution was set between 7.35 and 7.4 when gassed with the mixture of 95% O2 and 5% CO2 at 37 °C.
Isolated papillary muscle or atrial trabecula and Purkinje fiber preparations were obtained and prepared from the right ventricle and were individually mounted in a tissue chamber with the volume of 50 ml. Each preparation was initially stimulated through a pair of platinum electrodes in contact with the preparation using rectangular current pulses of 2 ms duration. These stimuli were delivered at a constant cycle length of 1000 ms for at least 60 min allowing the preparation to equilibrate before the measurements were initiated. Transmembrane potentials were recorded using conventional glass microelectrodes, filled with 3 M KCl and having tip resistances of 5–20 MΩ, connected to the input of a high impedance electrometer (Experimetria, type 309, Budapest, Hungary) which was coupled to a dual beam oscilloscope. […] Stimulation with a constant cycle length of 1000 ms was applied in the course of all experiments. Attempts were made to maintain the same impalement throughout each experiment. In case an impalement became dislodged, adjustment was attempted, and if the action potential characteristics of the re-established impalement deviated by less than 5% from the previous measurement, the experiment continued[64]–[67]. All measurements were carried out at 37 °C.

CC(N)COc1c(I)cc(C#N)cc1I.Cl (stereo not drawn) [SZV-2649, 4-(2-aminopropoxy)-3,5-diiodobenzonitrile hydrochloride]
Effect on magnitude of INaL [1]: significantly decreased | inhibition at 1 µM ([2]; 1 µM): ~23% | inhibition at 5 µM ([2]; 5 µM): ~75% | APA ([3]; 5 µM): 118.3 ± 1.9 mV | APD50 ([3]; 5 µM): 212.2 ± 5.7 ms | APD90 ([3]; 5 µM): 251.6 ± 4.0 ms | RP ([3]; 5 µM): −84.5 ± 2.0 mV | Vmax ([3]; 5 µM): 227.4 ± 24.2 V/s | Recovery time constant of Vmax (offset kinetics of Vmax block, τoffset) ([3]; 10 µM, dog ventricular muscle, premature stimulation from 1 Hz basic frequency): 590 ms | APA ([3]; 10 µM): 117.1 ± 2.1 mV | APD50 ([3]; 10 µM): 213.4 ± 5.8 ms | APD90 ([3]; 10 µM): 252.8 ± 5.0 ms | RP ([3]; 10 µM): −86.1 ± 2.0 mV | Vmax ([3]; 10 µM): 203.2 ± 24.3 V/s | Vmax ([3]; […]): 228.3 ± 23.5 V/s
